Laboratory results: US8546381B2, “Bridged heterocyclic compounds and methods of use” (Medivation Technologies, Inc., priority 2008, dated 2013)

Key:
[1] = biological target: T1, human recombinant dopamine D2L receptor (Homo sapiens, UniProt P14416); test: Dopamine D2L radioligand binding ([3H]Spiperone); details: read-out: Dopamine (1 μM) D2L, inhibition of ligand binding
T1 construct: expressed in transfected cells; host or cells: CHO cells
Summary of the method: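 Receptor expressed in CHO cells, in Tris-HCl pH 7.4 buffer with 150 mM NaCl. Binding used 0.16 nM [3H]spiperone for 120 min at 25 °C, with non-specific binding defined by 10 μM haloperidol and filtration counting.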

[2] = biological target: T2, human recombinant adrenergic α2B receptor (Homo sapiens, UniProt P18089); test: Adrenergic α2B radioligand binding ([3H]Rauwolscine); details: 1 μM; read-out: Adrenergic α2B, inhibition of ligand binding (1 μM)
T2 construct: expressed in transfected cells; host or cells: CHO-K1 cells
T2 sequence (P18089 1-450): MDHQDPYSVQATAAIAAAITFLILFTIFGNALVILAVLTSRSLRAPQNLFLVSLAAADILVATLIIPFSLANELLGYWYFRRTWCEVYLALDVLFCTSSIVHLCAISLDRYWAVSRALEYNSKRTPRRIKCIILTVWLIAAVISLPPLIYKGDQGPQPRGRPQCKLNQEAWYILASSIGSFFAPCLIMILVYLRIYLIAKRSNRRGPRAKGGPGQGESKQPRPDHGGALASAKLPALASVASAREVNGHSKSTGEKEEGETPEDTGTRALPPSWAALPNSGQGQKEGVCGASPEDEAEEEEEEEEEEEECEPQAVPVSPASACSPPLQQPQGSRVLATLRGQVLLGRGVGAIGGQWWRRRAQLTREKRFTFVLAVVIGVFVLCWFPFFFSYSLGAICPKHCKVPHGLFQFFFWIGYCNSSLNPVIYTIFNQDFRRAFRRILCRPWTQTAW
Description: To evaluate in radioligand binding assays the activity of compounds of the invention, human recombinant adrenergic α2B receptor expressed in Chinese hamster ovary (CHO-K1) cells (Uhlen S et al. Eur J. Pharmacol. 343(1):93, 1998) in a modified Tris-HCl buffer (50 mM Tris-HCl, pH 7.4, 12.5 mM MgCl2, 1 mM EDTA, 0.2% BSA) was used. Compounds of the invention were incubated with 2.5 nM [^3H]Rauwolscine for 60 minutes at 25° C. Non-specific binding was estimated in the presence of 10 μM Prozosin. Receptor proteins were filtered and washed, the filters were then counted to determine [^3H]Rauwolscine specifically bound. Compounds were screened at 1 μM or lower, using 1% DMSO as vehicle. Biochemical assay results are presented as the percent inhibition of specific binding in Table 3.

[3] = biological target: T3, human recombinant serotonin (5-Hydroxytryptamine) 5-HT6 receptor (Homo sapiens, UniProt P50406); test: Serotonin 5-HT6 radioligand binding ([3H]LSD); details: read-out: Serotonin 5-HT6, inhibition of ligand binding (1 μM)
T3 construct: expressed in transfected cells; host or cells: human HeLa cells
T3 sequence (P50406 whole entry): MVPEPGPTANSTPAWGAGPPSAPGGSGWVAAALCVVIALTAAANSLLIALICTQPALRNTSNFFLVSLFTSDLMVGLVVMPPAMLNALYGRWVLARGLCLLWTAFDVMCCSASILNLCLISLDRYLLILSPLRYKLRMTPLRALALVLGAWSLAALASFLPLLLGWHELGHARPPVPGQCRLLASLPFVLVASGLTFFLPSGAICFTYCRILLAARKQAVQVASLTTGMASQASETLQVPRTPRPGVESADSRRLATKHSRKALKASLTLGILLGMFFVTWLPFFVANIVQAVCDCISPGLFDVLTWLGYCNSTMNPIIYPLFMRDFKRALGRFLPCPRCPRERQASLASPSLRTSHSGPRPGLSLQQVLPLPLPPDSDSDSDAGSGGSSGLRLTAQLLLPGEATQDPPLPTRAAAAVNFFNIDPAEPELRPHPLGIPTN
Summary of the method: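 Membranes of HeLa cells expressing human 5-HT6 were incubated with 1.5 nM [3H]LSD in Tris-HCl buffer pH 7.4 for 120 min at 37° C, with non-specific binding defined by 5 μM 5-HT.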

[4] = biological target: T4, human recombinant adrenergic α2A receptor (Homo sapiens, UniProt P08913); test: Adrenergic α2A radioligand binding ([3H]MK-912); details: 1 μM; read-out: Adrenergic α2A, inhibition of ligand binding (1 μM)
T4 construct: expressed in transfected cells; host or cells: insect Sf9 cells
T4 sequence (P08913 1-465): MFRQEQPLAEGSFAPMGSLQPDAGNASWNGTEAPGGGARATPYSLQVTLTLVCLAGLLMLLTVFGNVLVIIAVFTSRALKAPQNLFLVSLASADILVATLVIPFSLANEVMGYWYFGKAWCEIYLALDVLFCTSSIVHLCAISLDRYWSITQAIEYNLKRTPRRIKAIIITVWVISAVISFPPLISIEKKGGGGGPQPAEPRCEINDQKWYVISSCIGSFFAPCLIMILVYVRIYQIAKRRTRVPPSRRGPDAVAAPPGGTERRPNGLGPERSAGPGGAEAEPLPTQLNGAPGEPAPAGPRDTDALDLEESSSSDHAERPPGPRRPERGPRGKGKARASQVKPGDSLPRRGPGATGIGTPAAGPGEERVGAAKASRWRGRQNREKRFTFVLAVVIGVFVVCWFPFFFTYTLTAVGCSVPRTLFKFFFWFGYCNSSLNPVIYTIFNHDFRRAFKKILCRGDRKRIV
Description: To evaluate in radioligand binding assays the activity of compounds of the invention, human recombinant adrenergic α2A receptor expressed in insect Sf9 cells (Uhlen S et al. J Pharmacol Exp Ther. 271:1558, 1994) in a modified Tris-HCl buffer (50 mM Tris-HCl, pH 7.4, 12.5 mM MgCl2, 2 mM EDTA) was used. Compounds of invention were incubated with 1 nM [^3H]MK-912 for 60 minutes at 25° C. MK912 is (2S-trans)-1,3,4,5′,6,6′,7,12b-octahydro-1′,3′-dimethyl-spiro[2H-benzofuro[2,3-a]quinolizine-2,4′(1′H) -pyrimidin]-2′(3′H)-one hydrochloride Non-specific binding was estimated in the presence of 10 μM WB-4101 (2-(2,6-Dimethoxyphenoxyethyl)aminomethyl-1,4-benzodioxane hydrochloride). Receptor proteins were filtered and washed, the filters were then counted to determine [^3H]MK-912 specifically bound. Compounds were screened at 1 μM or lower, using 1% DMSO as vehicle. Biochemical assay results are presented as the percent inhibition of specific binding in Table 3.

T1 sequence (P14416 whole entry): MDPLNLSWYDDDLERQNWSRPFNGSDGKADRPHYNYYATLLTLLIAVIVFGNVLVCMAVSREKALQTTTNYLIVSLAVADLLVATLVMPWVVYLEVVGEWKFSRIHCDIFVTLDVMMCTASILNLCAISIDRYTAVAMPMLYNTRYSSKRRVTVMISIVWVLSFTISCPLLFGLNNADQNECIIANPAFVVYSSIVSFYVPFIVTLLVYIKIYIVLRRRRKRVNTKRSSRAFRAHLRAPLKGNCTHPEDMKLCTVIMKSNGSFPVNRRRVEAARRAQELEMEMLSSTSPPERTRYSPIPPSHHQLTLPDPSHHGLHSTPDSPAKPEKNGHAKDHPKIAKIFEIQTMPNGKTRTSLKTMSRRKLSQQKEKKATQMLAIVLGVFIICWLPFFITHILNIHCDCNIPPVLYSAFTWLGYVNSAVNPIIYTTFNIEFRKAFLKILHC

SMILES | inhibition at 1 µM [1] [%] | inhibition at 1 µM [2] [%] | inhibition at 1 µM [3] [%] | inhibition at 1 µM [4] [%]
C/C(=C\n1c2c(c3cc(C)ccc31)C1CCC(C2)N1C)c1ccc(F)cc1 (centres unmarked) [Compound 124] | 33 | 101 | 85 | 91
C/C(=C\n1c2c(c3cc(Cl)ccc31)C1CCC(C2)N1C)c1ccc(Cl)cc1 (centres unmarked) [Compound 125] | 5 | 103 | 33 | 92
COc1ccc(/C(C)=C/n2c3c(c4cc(Cl)ccc42)C2CCC(C3)N2C)cc1F (centres unmarked) [Compound 136] | 11 | 87 | 31 | 91
CN1C2CCC1c1c(n(C#Cc3ccc(F)cc3)c3ccc(Cl)cc13)C2 (centres unmarked) [Compound 138] | 42 | 109 | 45 | 95
Cc1ccc(C#Cn2c3c(c4cc(Cl)ccc42)C2CCC(C3)N2C)cn1 (centres unmarked) [Compound 139] | -4 | 115 | 26 | 93
Cc1ccc2c(c1)c1c(n2C#Cc2ccc(F)cc2)CC2CCC1N2C (centres unmarked) [Compound 141] | -4 | 95 | 21 | 61
CN1C2CCC1c1c(n(C#Cc3ccc(Cl)cc3)c3ccc(Cl)cc13)C2 (centres unmarked) [Compound 142] | 0 | 95 | 36 | 82
COc1ccc(C(C)(O)Cn2c3c(c4cc(Cl)ccc42)C2CCC(C3)N2C)cc1F (centres unmarked) [Compound 160] | 7 | 80 | 29 | 63
COc1ccc(C(C)(O)Cn2c3c(c4cc(C)ccc42)C2CCC(C3)N2C)cc1F (centres unmarked) [Compound 161] | 12 | 95 | 25 | 55
Cc1ccc2c(c1)c1c(n2C(=O)Cc2ccc(Cl)cc2)CC2CCC1N2C (centres unmarked) [Compound 162] | 2 | 83 | 23 | 59
C/C(=C\n1c2c(c3cc(C)ccc31)C1CCC(C2)N1C)c1ccc(Cl)cc1Cl (centres unmarked) [Compound 163] | -16 | 104 | 36 | 95
